According to patent publication US20070149553A1, “Mitotic kinesin inhibitors” (priority 2003, published 2007):

Target: T1, human KSP motor domain (Homo sapiens, UniProt P52732)
T1 construct: were used to amplify the motor domain and the neck linker region; made in house; host or cells: E. coli BL21 (DE3)
T1 sequence (P52732 18-359 limits assumed): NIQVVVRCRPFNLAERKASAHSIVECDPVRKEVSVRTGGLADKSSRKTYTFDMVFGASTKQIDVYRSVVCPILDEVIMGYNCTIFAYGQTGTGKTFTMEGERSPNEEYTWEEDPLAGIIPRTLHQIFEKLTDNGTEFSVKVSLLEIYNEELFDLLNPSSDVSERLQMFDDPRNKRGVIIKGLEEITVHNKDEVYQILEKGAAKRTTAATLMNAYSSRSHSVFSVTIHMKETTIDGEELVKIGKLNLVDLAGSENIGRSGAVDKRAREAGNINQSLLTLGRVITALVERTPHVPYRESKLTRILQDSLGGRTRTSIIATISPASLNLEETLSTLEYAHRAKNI
Experiment: Kinesin ATPase In Vitro Assay
Assay type: biochemical
Conditions: human poly-histidine tagged KSP motor domain (KSP(367H)), microtubules, 1 mM ATP, 23° C.
Text: I. Kinesin ATPase In Vitro Assay
Cloning and Expression of Human Poly-Histidine Tagged KSP Motor Domain (KSP(367H))
Plasmids for the expression of the human KSP motor domain construct were cloned by PCR using a pBluescript full length human KSP construct (Blangy et al., Cell, vol. 83, pp 1159-1169, 1995) as a template. The N-terminal primer 5′-[…] (SEQ. ID. NO.: 1) and the C-terminal primer 5′-[…] […] (SEQ. ID. NO.: 2) were used to amplify the motor domain and the neck linker region. The PCR products were digested with AseI and XhoI, ligated into the NdeI/XhoI digestion product of pRSETa (Invitrogen) and transformed into E. coli BL21 (DE3).
Cells were grown at 37° C. to an OD600 of 0.5. […]
The kinesin motor domain is incubated with microtubules, 1 mM ATP (1:1 MgCl2: Na-ATP), and compound at 23° C. in buffer containing 80 mM K-HEPES (pH 7.0), 1 mM EGTA, 1 mM DTT, 1 mM MgCl2, and 50 mM KCl. […] Free phosphate from the ATP hydrolysis reaction is measured via a quinaldine red/ammonium molybdate assay by adding 150 μl of quench C buffer containing a 2:1 ratio of quench A:quench B. Quench A contains 0.1 mg/ml quinaldine red and 0.14% polyvinyl alcohol; quench B contains 12.3 mM ammonium molybdate tetrahydrate in 1.15 M sulfuric acid. The reaction is incubated for 10 minutes at 23° C., and the absorbance of the phospho-molybdate complex is measured at 540 nm.

IC50: ≤ 50 µM
SMILES: Cc1ccc(-n2c(-c3ccccc3Br)nc3sccc3c2=O)cc1 [1-4, 2-(2-bromophenyl)-3-(4-methylphenyl)thieno[2,3-d]pyrimidin-4(3H)-one]
